Data from patent US10214507B2, “Carbazole-containing amides, carbamates, and ureas as cryptochrome modulators” (Reset Therapeutics, Inc., priority 2014, dated 2019).
Read-outs that look alike come from different tables or passages of the source.

Key:
[1] = system: core clock gene mRNAs in liver of Balb/c mice; assay: 24 hour gene expression study, liver mRNA by RT-qPCR, Balb/c mice; format: in vivo, mouse; conditions: 50 mg/kg BID PO
Procedure: (§1) E.Z.N.A.® HP Total RNA Isolation Kits (R6812-01 and the protocol described in the Manual, Revised 2010) were utilized to prepare and isolate RNA from the liver samples. To prepare the RNA samples, 10-30 mg of sample was removed from RNA-Later and placed in a 1.5 ml microfuge tube. GTC lysis buffer (700 μl) was added to the tissue, which was homogenized with a rotor-stator homogenizer (e.g. Tissue-Tearor, Model #985370 BioSpec Products with 4.5 mm probe, Cat. #985370-04), and then centrifuged at full speed (>13,000×g) for 5 minutes. The cleared supernatant was transferred by pipetting to a DNA Clearance Column Pre-inserted in a 2 mL Collection Tube. The assembled column was centrifuged at 13,000×g for 1 minute, and the flow-through was saved. An equal volume (700 μl) of 70% ethanol was added to the lysate and mixed. The sample was then applied to a HiBind RNA spin column placed into a 2 ml collection tube, which was centrifuged at 10,000×g for 60 seconds at room temperature. RNA Wash Buffer I (250 μl) was added by pipetting directly onto a new HiBind RNA column inserted in a 2 ml collection tube. The assembled column was centrifuged at 10,000×g for 60 seconds. The RNA column was placed into a new 2 ml collection tube. DNase I stock solution is pipetted (75 μl) directly onto the surface of the HiBind RNA resin in each column (Using DNAse Digestion with RNase Free DNase Set (E1091): for each HiBind RNA column, the DNase I stock solution was prepared as followed: E.Z.N.A.® DNase I Digestion Buffer 73.5μl, RNase Free DNase I (20 Kunitz/μl) 1.5 μl=Total Volume 75 μl.). The column with bound RNA was incubated at room temperature (25-30° C.) for 15 minutes. RNA Wash Buffer I (500 μl) was added to the column and placed on a bench top for 2 minutes. After centrifuging at 10,000×g for 60 seconds, discarding the flow-through, 500 μl of RNA Wash Buffer II was added and centrifuged at 10,000×g for 60 seconds. Another 500 μl of RNA Wash Buffer II was added and the column assembly was centrifuged at 10,000×g for 60 seconds. The column was centrifuged for 2 minutes at maximum speed to completely dry the HiBind matrix. […]
RediPlate 96 RiboGreen RNA Quantification Kit (Invitrogen) RediPlate standard curve was prepared by transferring 20 μl reconstituted RNA standard to a RediPlate well reconstituted in 180 μl RediPlate TE buffer. […] After transferring 5 μl to RediPlate well reconstituted in 195 μl TE buffer and incubating 10 min. at RT, Fluorescence Intensity of wells with standards and samples were read in a Tecan M200 with Excitation set at 480 nm and Emission set at 520 nm with the gain set to −70%. […] A standard curve was generated in GraphPad Prism and sample readings (unknowns) are interpolated via linear regression analysis, and the RNA sample concentrations were calculated. […]

[2] = system: core clock and gluconeogenic gene mRNAs in liver of C57Bl/6J DIO mice; assay: 24 hour gene expression study, liver mRNA by RT-qPCR, C57Bl/6J DIO mice; format: in vivo, mouse; conditions: 50 mg/kg BID PO
Excerpt: Male C57Bl/6J DIO mice were purchased at 17 weeks of age (The Jackson Laboratory, Sacramento, Calif.) and acclimated for a 2 week period before being used for the experiment. Overall group size was 15 per treatment, divided into 5 time-points to give a final group size of 3 mice.
In total, each mouse received 5 doses of compound over the course of the experiment. Mice were weighed and randomly assigned to each treatment based on weight the evening before the commencement of the study. Beginning on Day 3 at 3:00 PM, a group of animals from the vehicle and Compound 72-treated groups were euthanized using CO2 asphyxiation, 50 mg of liver, epididymal fat, and skeletal muscle, respectively, were excised and placed in tube containing 500 μl of RNALater. This procedure took place for the remainder of the time-point groups at their given harvest times. Plasma samples were also taken for each animal and frozen, to be used for later measurement of compound levels.
as §1, with “matrix. The column was placed in a clean 1.5 ml microcentrifuge tube and 40-70 μl of molecular biology grade water is added.” for “matrix.”
RediPlate 96 RiboGreen RNA Quantification Kit (Invitrogen) RediPlate standard curve was prepared by transferring 20 μl reconstituted RNA standard to a RediPlate well reconstituted in 180 μl RediPlate TE buffer. […]

[3] = system: db/db mouse model of type II diabetes; assay: Increasing dosages of Compound 72 for 7 days in db/db mice; format: in vivo
Excerpt: (§2) Significance was accepted when p<0.05.

[4] = as above; format: in vivo, mouse; conditions: male, mouse, oral, around 8 hours after last dose
Excerpt: as §2

[5] = at ZT8 and 32 hours after original ZT0
[6] = peak of expression in dark period

**Q.** Which results are given for `O=C1NCCN1CC(O)Cn1c2ccc(F)cc2c2cc(F)ccc21` (centres unmarked) [Compound 72, 1-(3-(3,6-difluoro-9H-carbazol-9-yl)-2-hydroxypropyl)imidazolidin-2-one]?
**A.** Cry2 mRNA daytime peak in liver [1]: strongly attenuated; Bmal1 mRNA in liver [1, 5]: substantially increased; Cry1 mRNA in liver [1, 6]: suppressed; Per2 mRNA in liver over 24 hours ([1]; vs vehicle): suppressed; Cry2 mRNA daytime peak in liver [2]: strongly attenuated; Bmal1 mRNA in liver [2, 5]: substantially increased; Cry1 mRNA in liver [2, 6]: suppressed; Per2 mRNA in liver over 24 hours ([2]; vs vehicle): suppressed; circadian pattern of mRNAs for gluconeogenic genes Pck1 and G6Pc ([2]; liver, relative to vehicle): substantially altered; HOMA-IR ([3]; 10 mg/kg QD PO 7 days): 172.7+/−16.61 units; fasting blood glucose ([3]; 10 mg/kg QD PO 7 days): 503.5 ± 49.68 mg/dL; glucose AUC from OGTT ([3]; 10 mg/kg QD PO 7 days): 39771+/−4244; HOMA-IR ([3]; 50 mg/kg QD PO 7 days): 149.2+/−16.49 units; fasting blood glucose ([3]; 50 mg/kg QD PO 7 days): 402.8 ± 25.25 mg/dL; glucose AUC from OGTT ([3]; 50 mg/kg QD PO 7 days): 35527+/−3215; HOMA-IR ([3]; 100 mg/kg QD PO 7 days): 111.9+/−9.02 units; fasting blood glucose ([3]; 100 mg/kg QD PO 7 days): 420.7 ± 26.44 mg/dL; glucose AUC from OGTT ([3]; 100 mg/kg QD PO 7 days): 28499+/−3079; plasma insulin at t=0 ([3]; 100 mg/kg QD PO 7 days): 4.63 ± 0.17 ng/mL; reduction of HOMA-IR compared to vehicle control ([3]; 100 mg/kg QD PO 7 days): 34%; concentration at 8 h ([4]; liver, 10 mg/kg, read-out: compound level in liver): 120 nM; concentration at 8 h ([4]; liver, 50 mg/kg, read-out: compound level in liver): 780 nM; concentration at 8 h ([4]; liver, 100 mg/kg, read-out: compound level in liver): 1810 nM; concentration at 8 h ([4]; plasma, 10 mg/kg, read-out: compound level in plasma): 90 nM; concentration at 8 h ([4]; plasma, 50 mg/kg, read-out: compound level in plasma): 570 nM; concentration at 8 h ([4]; plasma, 100 mg/kg, read-out: compound level in plasma): 1220 nM
